{
  "source": "patent US20260250290A1",
  "about": "(BRISTOL-MYERS SQUIBB COMPANY, priority 2023, published 2026)",
  "data": [
    {"target": "T1, SGK1 (Homo sapiens, UniProt O00141)", "T1 sequence (O00141 1-431)": "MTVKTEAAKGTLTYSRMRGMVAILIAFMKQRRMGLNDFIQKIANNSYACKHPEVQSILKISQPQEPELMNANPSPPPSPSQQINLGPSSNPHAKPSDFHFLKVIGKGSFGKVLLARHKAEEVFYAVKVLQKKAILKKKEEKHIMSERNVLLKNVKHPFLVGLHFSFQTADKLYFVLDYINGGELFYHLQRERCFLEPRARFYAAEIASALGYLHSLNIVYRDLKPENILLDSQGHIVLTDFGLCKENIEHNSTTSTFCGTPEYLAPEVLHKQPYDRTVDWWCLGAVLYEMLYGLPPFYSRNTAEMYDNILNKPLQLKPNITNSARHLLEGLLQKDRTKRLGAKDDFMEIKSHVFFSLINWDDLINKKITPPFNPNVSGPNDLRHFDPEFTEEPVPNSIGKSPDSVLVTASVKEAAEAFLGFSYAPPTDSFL", "test": "SGK1 inhibition Assay B (Echo mass spectrometry of phosphorylated peptide product)", "format": "biochemical", "conditions": "60 min at room temperature", "units": {"IC50": "nM"}, "values": [
      {"smiles": "CCC(C)(C)NC1CCC(Oc2nc(C)sc2C(=O)N[C@@H]2CCCN(c3cc(C4=CC(=O)OC4)n4ncnc(N)c34)C2)CC1", "note": "(stereo partly drawn) [Example 1001, (R)—N-(1-(4-amino-7-(5-oxo-2,5-dihydrofuran-3-yl)pyrrolo[2,1-f][1,2,4]triazin-5-yl)piperidin-3-yl)-2-methyl-4-((4-(tert-pentylamino)cyclohexyl)oxy)thiazole-5-carboxamide]", "IC50": 0.6},
      {"smiles": "Cc1nc(O[C@H]2CC[C@@H](NC3CCOCC3)CC2)c(C(=O)N[C@@H]2CCCN(c3cc(C4=CC(=O)OC4)n4ncnc(N)c34)C2)s1", "note": "[Example 1002, N—((R)-1-(4-amino-7-(5-oxo-2,5-dihydrofuran-3-yl)pyrrolo[2,1-f][1,2,4]triazin-5-yl)piperidin-3-yl)-2-methyl-4-(((1S,4S)-4-((tetrahydro-2H-pyran-4-yl)amino)cyclohexyl)oxy)thiazole-5-carboxamide]", "IC50": 0.3},
      {"smiles": "CCC(CC)N[C@H]1CC[C@@H](Oc2nc(C)sc2C(=O)N[C@@H]2CCCN(c3cc(C4=CC(=O)OC4)n4ncnc(N)c34)C2)CC1", "note": "[Example 1003, N—((R)-1-(4-amino-7-(5-oxo-2,5-dihydrofuran-3-yl)pyrrolo[2,1-f][1,2,4]triazin-5-yl)piperidin-3-yl)-2-methyl-4-(((1S,4S)-4-(pentan-3-ylamino)cyclohexyl)oxy)thiazole-5-carboxamide]", "IC50": 0.8},
      {"smiles": "[2H]C([2H])([2H])N([C@H]1CC[C@@H](Oc2nc(C)sc2C(=O)N[C@@H]2CCCN(c3cc(C4=CC(=O)OC4)n4ncnc(N)c34)C2)CC1)C([2H])([2H])[2H]", "note": "[Example 1004, N—((R)-1-(4-amino-7-(5-oxo-2,5-dihydrofuran-3-yl)pyrrolo[2,1-f][1,2,4]triazin-5-yl)piperidin-3-yl)-4-(((1S,4S)-4-(bis(methyl-d3)amino)cyclohexyl)oxy)-2-methylthiazole-5-carboxamide]", "IC50": 0.9},
      {"smiles": "CCC(C)(C)NC1CCC(Oc2nc(C)sc2C(=O)N[C@@H]2CCCN(c3cc(C4=C(C)C(=O)OC4)n4ncnc(N)c34)C2)CC1", "note": "(stereo partly drawn) [Example 1005, (R)—N-(1-(4-amino-7-(4-methyl-5-oxo-2,5-dihydrofuran-3-yl)pyrrolo[2,1-f][1,2,4]triazin-5-yl)piperidin-3-yl)-2-methyl-4-((4-(tert-pentylamino)cyclohexyl)oxy)thiazole-5-carboxamide]", "IC50": 0.5},
      {"smiles": "CC1=C(c2cc(N3CCCC(NC(=O)c4sc(C)nc4OC4CCC(N5CCC5)CC4)C3)c3c(N)ncnn23)COC1=O", "note": "[Example 1006, (R)-N-(1-(4-amino-7-(4-methyl-5-oxo-2,5-dihydrofuran-3-yl)pyrrolo[2,1-f][1,2,4]triazin-5-y1)piperidin-3-y1)-4-((4-(azetidin-1-yl)cyclohexyl)oxy)-2-methylthiazole-5-carboxamide]", "IC50": 0.8},
      {"smiles": "COC[C@@H](C)N[C@H]1CC[C@@H](Oc2nc(C)sc2C(=O)N[C@@H]2CCCN(c3cc(C4=C(C)C(=O)OC4)n4ncnc(N)c34)C2)CC1", "note": "[Example 1007, N-((R)-1-(4-amino-7-(4-methyl-5-oxo-2.5-dihydrofuran-3-yl)pyrrolo[2,1-f][1,2,4]triazin-5-y1)piperidin-3-y1)-4-((4-(((R)-1-methoxypropan-2-yl)amino)cyclohexyl)oxy)-2~methylthiazole-5-carboxamide]", "IC50": 1},
      {"smiles": "COC[C@@H](C)NC1CCC(Oc2nc(C)sc2C(=O)N[C@@H]2CCCN(c3cc(C4=C(C)C(=O)OC4)n4ncnc(N)c34)C2)CC1", "note": "(stereo partly drawn) [Example 1008, N-((R)-1-(4-amino-7-(4-methyl-5-oxo-2,5-dihydrofuran-3-y1)pyrrolo[2,1-f][1,2,4]triazin-5-yl)piperidin-3-y1)-4-((4-(((R)-1-methoxypropan-2-yl)amino)cyclohexyl)oxy)-2-methylthiazole-5-carboxamide]", "IC50": 1},
      {"smiles": "CCC(CO)NC1CCC(Oc2nc(C)sc2C(=O)NC2CCCN(c3cc(C4=C(C)C(=O)OC4)n4ncnc(N)c34)C2)CC1", "note": "[Example 1009, N-((R)-1-(4-amino-7-(4-methyl-5-oxo-2,5-dihydrofuran-3-yl)pyrrolo[2,1-f][1,2,4]triazin-5-y1)piperidin-3-y1)-4-((4-(((S)-1-hydroxybutan-2-yl)amino)cyclohexyl)oxy)-2-methylthiazole-5-carboxamide]", "IC50": 1.9},
      {"smiles": "CC[C@H](CO)N[C@H]1CC[C@@H](Oc2nc(C)sc2C(=O)N[C@@H]2CCCN(c3cc(C4=C(C)C(=O)OC4)n4ncnc(N)c34)C2)CC1", "note": "[Example 1010, N-((R)-1-(4-amino-7-(4-methyl-5-oxo-2,5~dihydrofuran~3-yl)pyrrolo[2,1-f][1,2,4]triazin-5-y1)piperidin-3-y1)-4-((4-(((R)-1-hydroxybutan-2-yl)amino)cyclohexyl)oxy)-2-methylthiazole-5-carboxamide]", "IC50": 2.1},
      {"smiles": "CCNC1CCC(Oc2nc(C)sc2C(=O)N[C@@H]2CCCN(c3cc(C4=C(C)C(=O)OC4)n4ncnc(N)c34)C2)CC1", "note": "(stereo partly drawn) [Example 1011, (R)—N-(1-(4-amino-7-(4-methyl-5-oxo-2,5-dihydrofuran-3-yl)pyrrolo[2,1-f][1,2,4]triazin-5-yl)piperidin-3-yl)-4-((4-(ethylamino)cyclohexyl)oxy)-2-methylthiazole-5-carboxamide]", "IC50": 2.2},
      {"smiles": "CC1=C(c2cc(N3CCC[C@@H](NC(=O)c4sc(C)nc4O[C@H]4CC[C@@H](NC5CCOC5(C)C)CC4)C3)c3c(N)ncnn23)COC1=O", "note": "(stereo partly drawn) [Example 1012, N—((R)-1-(4-amino-7-(4-methyl-5-oxo-2,5-dihydrofuran-3-yl)pyrrolo[2,1-f][1,2,4]triazin-5-yl)piperidin-3-yl)-4-(((1S,4S)-4-((2,2-dimethyltetrahydrofuran-3-yl)amino)cyclohexyl)oxy)-2-methylthiazole-5-carboxamide]", "IC50": 1.1},
      {"smiles": "[2H]C([2H])([2H])N([C@H]1CC[C@@H](Oc2nc(C)sc2C(=O)N[C@@H]2CCCN(c3cc(C4=C(C)C(=O)OC4)n4ncnc(N)c34)C2)CC1)C([2H])([2H])[2H]", "note": "[Example 1013, N—((R)-1-(4-amino-7-(4-methyl-5-oxo-2,5-dihydrofuran-3-yl)pyrrolo[2,1-f][1,2,4]triazin-5-yl)piperidin-3-yl)-4-(((1S,4S)-4-(bis(methyl-d3)amino)cyclohexyl)oxy)-2-methylthiazole-5-carboxamide]", "IC50": 1.7},
      {"smiles": "[2H]C([2H])([2H])c1nc(O[C@H]2CC[C@@H](N(C)C)CC2)c(C(=O)N[C@@H]2CCCN(c3cc(C4=C(C)C(=O)OC4)n4ncnc(N)c34)C2)s1", "note": "[Example 1016, N—((R)-1-(4-amino-7-(4-methyl-5-oxo-2,5-dihydrofuran-3-yl)pyrrolo[2,1-f][1,2,4]triazin-5-yl)piperidin-3-yl)-4-(((1S,4S)-4-(dimethylamino)cyclohexyl)oxy)-2-(methyl-d3)thiazole-5-carboxamide]", "IC50": 1},
      {"smiles": "CC1=C(c2cc(N3CCC[C@@H](NC(=O)c4sc(C)nc4OC4CCC(N(C)C)CC4)C3)c3c(N)ncnn23)COC1=O", "note": "(stereo partly drawn) [Example 1017, N—((R)-1-(4-amino-7-(4-methyl-5-oxo-2,5-dihydrofuran-3-yl)pyrrolo[2,1-f][1,2,4]triazin-5-yl)piperidin-3-yl)-4-(((1S,4S)-4-(dimethylamino)cyclohexyl)oxy)-2-(methyl-d3)thiazole-5-carboxamide]", "IC50": 1.6},
      {"smiles": "CCC1=C(c2cc(N3CCC[C@@H](NC(=O)c4sc(C)nc4O[C@H]4CC[C@@H](N(C)C)CC4)C3)c3c(N)ncnn23)COC1=O", "note": "[Example 1018, N—((R)-1-(4-amino-7-(4-ethyl-5-oxo-2,5-dihydrofuran-3-yl)pyrrolo[2,1-f][1,2,4]triazin-5-yl)piperidin-3-yl)-4-(((1S,4S)-4-(dimethylamino)cyclohexyl)oxy)-2-methylthiazole-5-carboxamide]", "IC50": 0.8},
      {"smiles": "CCC1=C(c2cc(N3CCC[C@@H](NC(=O)c4sc(C)nc4OC4CCC(NC5CC5)CC4)C3)c3c(N)ncnn23)COC1=O", "note": "(stereo partly drawn) [Example 1022, (R)-N-(1-(4-amino-7-(4-ethyl-5-oxo-2,5-dihydrofuran-3-yl)pyrrolo[2,1-f][1,2,4]triazin-5-yl)piperidin-3-y1)-4-((4-(cyclopropylamino)cyclohexyl)oxy)-2-methylthiazole-5-carboxamide]", "IC50": 1.3},
      {"smiles": "Cc1nc(OC2CCC(NC(C)(C)C)CC2)c(C(=O)N[C@@H]2CCCN(c3cc(-c4ccc(S(C)(=O)=O)cn4)n4ncnc(N)c34)C2)s1", "note": "(stereo partly drawn) [Example 1026, (R)—N-(1-(4-amino-7-(5-(methylsulfonyl)pyridin-2-yl)pyrrolo[2,1-f][1,2,4]triazin-5-yl)piperidin-3-yl)-4-((4-(tert-butylamino)cyclohexyl)oxy)-2-methylthiazole-5-carboxamide]", "IC50": 2.2},
      {"smiles": "COc1nccc(-c2cc(N3CCC[C@@H](NC(=O)c4sc(C)nc4O[C@H]4CC[C@@H](N(C)C)CC4)C3)c3c(N)ncnn23)n1", "note": "[Example 1028, N—((R)-1-(4-amino-7-(2-methoxypyrimidin-4-yl)pyrrolo[2,1-f][1,2,4]triazin-5-yl)piperidin-3-yl)-4-(((1S,4S)-4-(dimethylamino)cyclohexyl)oxy)-2-methylthiazole-5-carboxamide]", "IC50": 1.7},
      {"smiles": "COc1nccc(-c2cc(N3CCC[C@@H](NC(=O)c4sc(C)nc4O[C@H]4CC[C@@H](N5CCCC5)CC4)C3)c3c(N)ncnn23)n1", "note": "[Example 1029, N—((R)-1-(4-amino-7-(2-methoxypyrimidin-4-yl)pyrrolo[2,1-f][1,2,4]triazin-5-yl)piperidin-3-yl)-2-methyl-4-(((1s,4S)-4-(pyrrolidin-1-yl)cyclohexyl)oxy)thiazole-S-carboxamidemorpholinothiophene-2-carboxamide]", "IC50": 0.1}
    ]}
  ]
}
